{"source": "the NIST ThermoML archive (doi:10.1021/je034173q)", "key": {"[1]": {"assay": "molar heat capacity at constant pressure", "details": "101.33 kPa, Liquid, Small sample (50 mg) DSC"}, "[2]": {"details": "Liquid, Ebulliometric method (Recirculating still)"}}, "note": "± gives the expanded uncertainty stated by the source.", "data": [{"compound": "CCC1COC(=O)O1", "note": "(centres undefined) [1,2-butylene carbonate]", "values": [{"measurement": "molar heat capacity at constant pressure", "setting": "[1]; 283.15 K", "value": "192.75 ± 5.8", "unit": "J/K/mol"}, {"measurement": "molar heat capacity at constant pressure", "setting": "[1]; 293.15 K", "value": "195.07 ± 5.8", "unit": "J/K/mol"}, {"measurement": "molar heat capacity at constant pressure", "setting": "[1]; 303.15 K", "value": "197.4 ± 5.8", "unit": "J/K/mol"}, {"measurement": "molar heat capacity at constant pressure", "setting": "[1]; 313.15 K", "value": "199.72 ± 5.8", "unit": "J/K/mol"}, {"measurement": "molar heat capacity at constant pressure", "setting": "[1]; 323.15 K", "value": "202.04 ± 5.8", "unit": "J/K/mol"}, {"measurement": "molar heat capacity at constant pressure", "setting": "[1]; 333.15 K", "value": "205.52 ± 5.8", "unit": "J/K/mol"}, {"measurement": "molar heat capacity at constant pressure", "setting": "[1]; 343.15 K", "value": "207.85 ± 5.8", "unit": "J/K/mol"}, {"measurement": "molar heat capacity at constant pressure", "setting": "[1]; 353.15 K", "value": "210.17 ± 5.8", "unit": "J/K/mol"}, {"measurement": "molar heat capacity at constant pressure", "setting": "[1]; 363.15 K", "value": "212.49 ± 5.8", "unit": "J/K/mol"}, {"measurement": "molar heat capacity at constant pressure", "setting": "[1]; 373.15 K", "value": "214.81 ± 5.8", "unit": "J/K/mol"}, {"measurement": "vapor or sublimation pressure", "setting": "[2]; 397.25 K", "value": "1.9 ± 0.04", "unit": "kPa"}, {"measurement": "vapor or sublimation pressure", "setting": "[2]; 402.93 K", "value": "2.44 ± 0.05", "unit": "kPa"}, {"measurement": "vapor or sublimation pressure", "setting": "[2]; 409.65 K", "value": "3.23 ± 0.07", "unit": "kPa"}, {"measurement": "vapor or sublimation pressure", "setting": "[2]; 417.69 K", "value": "4.45 ± 0.09", "unit": "kPa"}, {"measurement": "vapor or sublimation pressure", "setting": "[2]; 424.67 K", "value": "5.8 ± 0.12", "unit": "kPa"}, {"measurement": "vapor or sublimation pressure", "setting": "[2]; 432.03 K", "value": "7.57 ± 0.15", "unit": "kPa"}, {"measurement": "vapor or sublimation pressure", "setting": "[2]; 438.31 K", "value": "9.43 ± 0.19", "unit": "kPa"}, {"measurement": "vapor or sublimation pressure", "setting": "[2]; 445.57 K", "value": "12.03 ± 0.24", "unit": "kPa"}, {"measurement": "vapor or sublimation pressure", "setting": "[2]; 453.2 K", "value": "15.39 ± 0.31", "unit": "kPa"}, {"measurement": "vapor or sublimation pressure", "setting": "[2]; 460.53 K", "value": "19.28 ± 0.39", "unit": "kPa"}, {"measurement": "vapor or sublimation pressure", "setting": "[2]; 467.68 K", "value": "23.89 ± 0.48", "unit": "kPa"}, {"measurement": "vapor or sublimation pressure", "setting": "[2]; 474.59 K", "value": "29.14 ± 0.58", "unit": "kPa"}, {"measurement": "vapor or sublimation pressure", "setting": "[2]; 481.93 K", "value": "35.77 ± 0.72", "unit": "kPa"}, {"measurement": "vapor or sublimation pressure", "setting": "[2]; 488.3 K", "value": "42.38 ± 0.85", "unit": "kPa"}, {"measurement": "vapor or sublimation pressure", "setting": "[2]; 495.04 K", "value": "50.52 ± 1", "unit": "kPa"}, {"measurement": "vapor or sublimation pressure", "setting": "[2]; 501.76 K", "value": "59.91 ± 1.2", "unit": "kPa"}, {"measurement": "vapor or sublimation pressure", "setting": "[2]; 508.33 K", "value": "70.54 ± 1.4", "unit": "kPa"}, {"measurement": "vapor or sublimation pressure", "setting": "[2]; 515.54 K", "value": "83.68 ± 1.7", "unit": "kPa"}, {"measurement": "vapor or sublimation pressure", "setting": "[2]; 522.74 K", "value": "99.08 ± 2", "unit": "kPa"}]}, {"compound": "CC1COC(=O)O1", "note": "(centres undefined) [4-methyl-1,3-dioxolan-2-one]", "values": [{"measurement": "molar heat capacity at constant pressure", "setting": "[1]; 303.15 K", "value": "170.49 ± 5.1", "unit": "J/K/mol"}, {"measurement": "molar heat capacity at constant pressure", "setting": "[1]; 313.15 K", "value": "172.53 ± 5.1", "unit": "J/K/mol"}, {"measurement": "molar heat capacity at constant pressure", "setting": "[1]; 323.15 K", "value": "174.57 ± 5.1", "unit": "J/K/mol"}, {"measurement": "molar heat capacity at constant pressure", "setting": "[1]; 333.15 K", "value": "176.61 ± 5.1", "unit": "J/K/mol"}, {"measurement": "molar heat capacity at constant pressure", "setting": "[1]; 343.15 K", "value": "178.66 ± 5.1", "unit": "J/K/mol"}, {"measurement": "molar heat capacity at constant pressure", "setting": "[1]; 353.15 K", "value": "180.7 ± 5.1", "unit": "J/K/mol"}, {"measurement": "molar heat capacity at constant pressure", "setting": "[1]; 363.15 K", "value": "183.76 ± 5.1", "unit": "J/K/mol"}, {"measurement": "molar heat capacity at constant pressure", "setting": "[1]; 373.15 K", "value": "185.8 ± 5.1", "unit": "J/K/mol"}, {"measurement": "molar heat capacity at constant pressure", "setting": "[1]; 383.15 K", "value": "188.86 ± 5.1", "unit": "J/K/mol"}, {"measurement": "molar heat capacity at constant pressure", "setting": "[1]; 393.15 K", "value": "190.91 ± 5.1", "unit": "J/K/mol"}, {"measurement": "vapor or sublimation pressure", "setting": "[2]; 459.85 K", "value": "24.21 ± 0.48", "unit": "kPa"}, {"measurement": "vapor or sublimation pressure", "setting": "[2]; 465.35 K", "value": "28.46 ± 0.57", "unit": "kPa"}, {"measurement": "vapor or sublimation pressure", "setting": "[2]; 468.45 K", "value": "31.24 ± 0.63", "unit": "kPa"}, {"measurement": "vapor or sublimation pressure", "setting": "[2]; 471.75 K", "value": "34.04 ± 0.68", "unit": "kPa"}, {"measurement": "vapor or sublimation pressure", "setting": "[2]; 475.85 K", "value": "38.09 ± 0.76", "unit": "kPa"}, {"measurement": "vapor or sublimation pressure", "setting": "[2]; 478.35 K", "value": "40.81 ± 0.82", "unit": "kPa"}, {"measurement": "vapor or sublimation pressure", "setting": "[2]; 482.25 K", "value": "45.44 ± 0.91", "unit": "kPa"}, {"measurement": "vapor or sublimation pressure", "setting": "[2]; 485.05 K", "value": "49.16 ± 0.98", "unit": "kPa"}, {"measurement": "vapor or sublimation pressure", "setting": "[2]; 491.25 K", "value": "57.38 ± 1.1", "unit": "kPa"}, {"measurement": "vapor or sublimation pressure", "setting": "[2]; 494.25 K", "value": "61.83 ± 1.2", "unit": "kPa"}, {"measurement": "vapor or sublimation pressure", "setting": "[2]; 496.95 K", "value": "66.33 ± 1.3", "unit": "kPa"}, {"measurement": "vapor or sublimation pressure", "setting": "[2]; 499.45 K", "value": "70.45 ± 1.4", "unit": "kPa"}, {"measurement": "vapor or sublimation pressure", "setting": "[2]; 501.25 K", "value": "73.46 ± 1.5", "unit": "kPa"}, {"measurement": "vapor or sublimation pressure", "setting": "[2]; 504.05 K", "value": "78.67 ± 1.6", "unit": "kPa"}, {"measurement": "vapor or sublimation pressure", "setting": "[2]; 506.65 K", "value": "83.64 ± 1.7", "unit": "kPa"}, {"measurement": "vapor or sublimation pressure", "setting": "[2]; 508.15 K", "value": "86.64 ± 1.7", "unit": "kPa"}, {"measurement": "vapor or sublimation pressure", "setting": "[2]; 509.75 K", "value": "89.87 ± 1.8", "unit": "kPa"}, {"measurement": "vapor or sublimation pressure", "setting": "[2]; 511.15 K", "value": "92.66 ± 1.9", "unit": "kPa"}, {"measurement": "vapor or sublimation pressure", "setting": "[2]; 513.25 K", "value": "97.17 ± 1.9", "unit": "kPa"}]}, {"compound": "O=C1OCCO1", "note": "[ethylene carbonate]", "values": [{"measurement": "molar heat capacity at constant pressure", "setting": "[1]; 383.15 K", "value": "155.87 ± 4.4", "unit": "J/K/mol"}, {"measurement": "molar heat capacity at constant pressure", "setting": "[1]; 388.15 K", "value": "156.75 ± 4.4", "unit": "J/K/mol"}, {"measurement": "molar heat capacity at constant pressure", "setting": "[1]; 393.15 K", "value": "157.63 ± 4.4", "unit": "J/K/mol"}, {"measurement": "molar heat capacity at constant pressure", "setting": "[1]; 398.15 K", "value": "158.51 ± 4.4", "unit": "J/K/mol"}, {"measurement": "vapor or sublimation pressure", "setting": "[2]; 451.58 K", "value": "15.19 ± 0.3", "unit": "kPa"}, {"measurement": "vapor or sublimation pressure", "setting": "[2]; 456.04 K", "value": "17.52 ± 0.35", "unit": "kPa"}, {"measurement": "vapor or sublimation pressure", "setting": "[2]; 460.15 K", "value": "19.94 ± 0.4", "unit": "kPa"}, {"measurement": "vapor or sublimation pressure", "setting": "[2]; 466.22 K", "value": "24.23 ± 0.49", "unit": "kPa"}, {"measurement": "vapor or sublimation pressure", "setting": "[2]; 487.1 K", "value": "44.69 ± 0.89", "unit": "kPa"}, {"measurement": "vapor or sublimation pressure", "setting": "[2]; 493.67 K", "value": "53.59 ± 1.1", "unit": "kPa"}, {"measurement": "vapor or sublimation pressure", "setting": "[2]; 500.01 K", "value": "63.34 ± 1.3", "unit": "kPa"}, {"measurement": "vapor or sublimation pressure", "setting": "[2]; 505.5 K", "value": "73.45 ± 1.5", "unit": "kPa"}]}, {"compound": "O=C1OCC(CO)O1", "note": "(centres undefined) [glycerine carbonate]", "values": [{"measurement": "molar heat capacity at constant pressure", "setting": "[1]; 283.15 K", "value": "211.38 ± 5.9", "unit": "J/K/mol"}, {"measurement": "molar heat capacity at constant pressure", "setting": "[1]; 293.15 K", "value": "213.74 ± 5.9", "unit": "J/K/mol"}, {"measurement": "molar heat capacity at constant pressure", "setting": "[1]; 303.15 K", "value": "214.92 ± 5.9", "unit": "J/K/mol"}, {"measurement": "molar heat capacity at constant pressure", "setting": "[1]; 313.15 K", "value": "216.1 ± 5.9", "unit": "J/K/mol"}, {"measurement": "molar heat capacity at constant pressure", "setting": "[1]; 323.15 K", "value": "217.28 ± 5.9", "unit": "J/K/mol"}, {"measurement": "molar heat capacity at constant pressure", "setting": "[1]; 333.15 K", "value": "218.46 ± 5.9", "unit": "J/K/mol"}, {"measurement": "molar heat capacity at constant pressure", "setting": "[1]; 343.15 K", "value": "220.82 ± 5.9", "unit": "J/K/mol"}, {"measurement": "molar heat capacity at constant pressure", "setting": "[1]; 353.15 K", "value": "223.19 ± 5.9", "unit": "J/K/mol"}, {"measurement": "molar heat capacity at constant pressure", "setting": "[1]; 363.15 K", "value": "225.55 ± 7.1", "unit": "J/K/mol"}, {"measurement": "molar heat capacity at constant pressure", "setting": "[1]; 373.15 K", "value": "226.73 ± 7.1", "unit": "J/K/mol"}, {"measurement": "vapor or sublimation pressure", "setting": "[2]; 429.91 K", "value": "0.26 ± 0.01", "unit": "kPa"}, {"measurement": "vapor or sublimation pressure", "setting": "[2]; 432.47 K", "value": "0.3 ± 0.01", "unit": "kPa"}, {"measurement": "vapor or sublimation pressure", "setting": "[2]; 434.39 K", "value": "0.33 ± 0.01", "unit": "kPa"}, {"measurement": "vapor or sublimation pressure", "setting": "[2]; 435.94 K", "value": "0.36 ± 0.01", "unit": "kPa"}, {"measurement": "vapor or sublimation pressure", "setting": "[2]; 438.9 K", "value": "0.41 ± 0.01", "unit": "kPa"}, {"measurement": "vapor or sublimation pressure", "setting": "[2]; 447.48 K", "value": "0.62 ± 0.02", "unit": "kPa"}, {"measurement": "vapor or sublimation pressure", "setting": "[2]; 449.41 K", "value": "0.68 ± 0.02", "unit": "kPa"}, {"measurement": "vapor or sublimation pressure", "setting": "[2]; 452.48 K", "value": "0.78 ± 0.02", "unit": "kPa"}, {"measurement": "vapor or sublimation pressure", "setting": "[2]; 455.61 K", "value": "0.9 ± 0.02", "unit": "kPa"}]}]}
